These are literature values, as cited in US20120316171A1, “Tryptophan Hydroxylase Inhibitors for the Treatment of Cancer” (priority 2009, published 2012).

The conditions of series [1]: in vivo.
The subject of series [2] is cholangiocarcinoma tumors. The settings on record: xenograft model of cholangiocarcinoma tumors; Alpini et al. 2008.

As to `N[C@@H](Cc1ccc(Cl)cc1)C(=O)O` (racemic) [pCPA, para-chlorophenylalanine], in the series on carcinoid patients, the “adverse effects of administration” value is “unwanted psychological effects”. The “effect on symptoms of carcinoid syndrome (flushing, diarrhea, valvular damage)” value in the series on carcinoid patients (reported in the 1960's) was “alleviated some of those symptoms”. The blood-brain barrier passage result in series [1] is recorded as “crosses the blood-brain barrier”. Besides, the tumor growth entry in series [2] was “suppressed tumor growth”.
